Results on one molecule are retold here after patent US9072675B2, “Non-irritating benzoyl peroxide” (Essential Ingredients, Inc., priority 2010, dated 2015).

This data set concerns skin of the infrascapular regions of the back. The data set is described as follows: Cumulative irritation patch test (12 days, semi-occlusive patches). To be noted: 25 subjects, 24 hour semi-occlusive patches over 12 days, daily score capped at 3; maximum 900.

Protocol: Twenty-five subjects ages 20-65 were requested to bathe or wash as usual before arrival at the facility. Qualified subjects were then prepared for patch application by having the test sites wiped with alcohol and air-dried. […] Patches were applied for approximately a 24 hour period, then removed and discarded by the subject approximately two hours prior to grading. All induction patches were applied to the same sites unless the degree of reaction (cumulative grade 3) to a material or the adhesive necessitated removal. The skin adjacent to the patches was marked using a surgical marker or other suitable marking pen. Prior to each reapplication, the test sites were evaluated. At the final visit, no patches were applied and the patch sites were graded. Skin responses were evaluated according to the following scale by a technical associate of AMA Laboratories, Inc. (scorer) trained in the evaluation of skin using consistent adequate lighting from a 60-watt incandescent blue day light bulb to illuminate the patch area. All reasonable attempts were made to ensure that the same individual did all of the scoring of reactions to the test articles during the course of the study, and was blinded to the treatment assignments and any previous scores. […]

Regarding `CCCCCCCCCCCCOS(=O)(=O)[O-].[Na+]` [Sodium Lauryl Sulfate], the “total cumulative irritancy score” value worked out at 78.
